Reference: US9487515B2, “Compounds modulating c-fms and/or c-kit activity and uses therefor” (Plexxikon Inc., priority 2006, dated 2016)

The molecules below were run against c-kit (Homo sapiens, UniProt P10721) (assay: c-kit assays of Examples 40 and 41 (AlphaScreen kinase assays at 10 and 100 μM ATP, 33P-ATP filter assay, M-07e SCF-stimulated proliferation and phosphorylation)).
c-kit, sequence (P10721 with tags, fused parts or gaps): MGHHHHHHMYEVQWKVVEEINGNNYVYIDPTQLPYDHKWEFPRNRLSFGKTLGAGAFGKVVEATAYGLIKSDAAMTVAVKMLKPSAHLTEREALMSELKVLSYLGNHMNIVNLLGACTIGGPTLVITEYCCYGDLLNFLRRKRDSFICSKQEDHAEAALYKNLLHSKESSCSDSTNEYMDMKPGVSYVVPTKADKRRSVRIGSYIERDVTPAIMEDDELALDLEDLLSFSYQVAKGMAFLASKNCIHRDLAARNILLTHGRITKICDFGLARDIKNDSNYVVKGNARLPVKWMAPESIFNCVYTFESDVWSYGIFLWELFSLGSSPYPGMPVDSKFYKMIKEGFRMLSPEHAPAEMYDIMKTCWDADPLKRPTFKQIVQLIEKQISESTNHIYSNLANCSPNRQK

IC50 [nM]	SMILES
< 1000	COc1ncccc1CNc1ccc(Cc2c[nH]c3ncc(C)cc23)cn1 [P-0285, (2-Methoxy-pyridin-3-ylmethyl)-[5-(5-methyl-1H-pyrrolo[2,3-b]pyridin-3-ylmethyl)-pyridin-2-yl]-amine]
< 1000	COc1ncccc1CNc1ccc(Cc2c[nH]c3ncc(Cl)cc23)cn1 [P-0286, [5-(5-Chloro-1H-pyrrolo[2,3-b]pyridin-3-ylmethyl)-pyridin-2-yl]-(2-methoxy-pyridin-3-ylmethyl)-amine]
< 1000	COc1ncccc1CNc1ccc(Cc2c[nH]c3ncc(C#N)cc23)cn1 [P-0287, 3-{6-[(2-Methoxy-pyridin-3-ylmethyl)-amino]-pyridin-3-ylmethyl}-1H-pyrrolo[2,3-b]pyridine-5-carbonitrile]
< 1000	CCOc1ccccc1CNc1ccc(Cc2c[nH]c3ncccc23)cn1 [P-0288, (2-Ethoxy-benzyl)-[5-(1H-pyrrolo[2,3-b]pyridin-3-ylmethyl)-pyridin-2-yl]-amine]
< 1000	Fc1ccc(C(F)(F)F)cc1CNc1ncc(Cc2c[nH]c3ncc(Cl)cc23)cn1 [P-0289, [5-(5-Chloro-1H-pyrrolo[2,3-b]pyridin-3-ylmethyl)-pyrimidin-2-yl]-(2-fluoro-5-trifluoromethyl-benzyl)-amine]
< 1000	Fc1ccc(CNc2ncc(Cc3c[nH]c4ncc(Cl)cc34)s2)cc1 [P-0290, [5-(5-Chloro-1H-pyrrolo[2,3-b]pyridin-3-ylmethyl)-thiazol-2-yl]-(4-fluoro-benzyl)-amine]
< 1000	Fc1ccc(C(F)(F)F)cc1CNc1ncc(Cc2c[nH]c3ncccc23)cn1 [P-0291, (2-Fluoro-5-trifluoromethyl-benzyl)-[5-(1H-pyrrolo[2,3-b]pyridin-3-ylmethyl)-pyrimidin-2-yl]-amine]
< 1000	Fc1cc(CNc2ncc(Cc3c[nH]c4ncccc34)cn2)cc(C(F)(F)F)c1 [P-0294, (3-Fluoro-5-trifluoromethyl-benzyl)-[5-(1H-pyrrolo[2,3-b]pyridin-3-ylmethyl)-pyrimidin-2-yl]-amine]
< 1000	Cc1cnc2[nH]cc(Cc3ccc(NCc4cc(F)ccc4F)nc3)c2c1 [P-0297, (2,5-Difluoro-benzyl)-[5-(5-methyl-1H-pyrrolo[2,3-b]pyridin-3-ylmethyl)-pyridin-2-yl]-amine]
< 1000	Fc1ccc(F)c(CNc2ccc(Cc3c[nH]c4ncc(Cl)cc34)cn2)c1 [P-0298, [5-(5-Chloro-1H-pyrrolo[2,3-b]pyridin-3-ylmethyl)-pyridin-2-yl]-(2,5-difluoro-benzyl)-amine]
< 1000	Clc1ccccc1CNc1ncc(Cc2c[nH]c3ncccc23)cn1 [P-0301, (2-Chloro-benzyl)-[5-(1H-pyrrolo[2,3-b]pyridin-3-ylmethyl)-pyrimidin-2-yl]-amine]
< 1000	FC(F)(F)c1ccccc1CNc1ncc(Cc2c[nH]c3ncccc23)cn1 [P-0302, [5-(1H-Pyrrolo[2,3-b]pyridin-3-ylmethyl)-pyrimidin-2-yl]-(2-trifluoromethyl-benzyl)-amine]
< 1000	Clc1ccc(CNc2ncc(Cc3c[nH]c4ncccc34)cn2)c(Cl)c1 [P-0305, (2,4-Dichloro-benzyl)-[5-(1H-pyrrolo[2,3-b]pyridin-3-ylmethyl)-pyrimidin-2-yl]-amine]
< 1000	Fc1ccc(CNc2ncc(Cc3c[nH]c4ncccc34)cn2)c(F)c1 [P-0306, (2,4-Difluoro-benzyl)-[5-(1H-pyrrolo[2,3-b]pyridin-3-ylmethyl)-pyrimidin-2-yl]-amine]
< 1000	Clc1ccc(CNc2ncc(Cc3c[nH]c4ncccc34)cn2)cc1 [P-0307, (4-Chloro-benzyl)-[5-(1H-pyrrolo[2,3-b]pyridin-3-ylmethyl)-pyrimidin-2-yl]-amine]
< 1000	FC(F)(F)c1ccc(CNc2ncc(Cc3c[nH]c4ncccc34)cn2)cc1 [P-0308, [5-(1H-Pyrrolo[2,3-b]pyridin-3-ylmethyl)-pyrimidin-2-yl]-(4-trifluoromethyl-benzyl)-amine]
< 1000	Fc1c(CNc2ncc(Cc3c[nH]c4ncccc34)cn2)cccc1C(F)(F)F [P-0309, (2-Fluoro-3-trifluoromethyl-benzyl)-[5-(1H-pyrrolo[2,3-b]pyridin-3-ylmethyl)-pyrimidin-2-yl]-amine]
< 1000	Fc1c(Cl)cccc1CNc1ncc(Cc2c[nH]c3ncccc23)cn1 [P-0311, (3-Chloro-2-fluoro-benzyl)-[5-(1H-pyrrolo[2,3-b]pyridin-3-ylmethyl)-pyrimidin-2-yl]-amine]
< 1000	FC(F)Oc1ccccc1CNc1ncc(Cc2c[nH]c3ncccc23)cn1 [P-0312, (2-Difluoromethoxy-benzyl)-[5-(1H-pyrrolo[2,3-b]pyridin-3-ylmethyl)-pyrimidin-2-yl]-amine]
< 1000	Clc1cccc(CNc2ncc(Cc3c[nH]c4ncccc34)cn2)c1Cl [P-0313, (2,3-Dichloro-benzyl)-[5-(1H-pyrrolo[2,3-b]pyridin-3-ylmethyl)-pyrimidin-2-yl]-amine]
< 1000	Fc1cc(Cl)ccc1CNc1ncc(Cc2c[nH]c3ncccc23)cn1 [P-0314, (4-Chloro-2-fluoro-benzyl)-[5-(1H-pyrrolo[2,3-b]pyridin-3-ylmethyl)-pyrimidin-2-yl]-amine]

IC50 [nM]	SMILES
< 1000	Fc1ccc(CNc2ncc(Cc3c[nH]c4ncccc34)cn2)c(Cl)c1 [P-0316, (2-Chloro-4-fluoro-benzyl)-[5-(1H-pyrrolo[2,3-b]pyridin-3-ylmethyl)-pyrimidin-2-yl]-amine]
< 1000	Fc1cc(C(F)(F)F)ccc1CNc1ncc(Cc2c[nH]c3ncccc23)cn1 [P-0319, (2-Fluoro-4-trifluoromethyl-benzyl)-[5-(1H-pyrrolo[2,3-b]pyridin-3-ylmethyl)-pyrimidin-2-yl]-amine]
< 1000	Fc1ccc(CNc2ncc(Cc3c[nH]c4ncccc34)cn2)c(C(F)(F)F)c1 [P-0320, (4-Fluoro-2-trifluoromethyl-benzyl)-[5-(1H-pyrrolo[2,3-b]pyridin-3-ylmethyl)-pyrimidin-2-yl]-amine]
< 1000	N#Cc1cnc2[nH]cc(Cc3ccc(NCc4ccccc4OC(F)(F)F)nc3)c2c1 [P-0321, 3-[6-(2-Trifluoromethoxy-benzylamino)-pyridin-3-ylmethyl]-1H-pyrrolo[2,3-b]pyridine-5-carbonitrile]
< 1000	FC(F)(F)Oc1ccccc1CNc1ccc(Cc2c[nH]c3ncccc23)cn1 [P-0322, [5-(1H-Pyrrolo[2,3-b]pyridin-3-ylmethyl)-pyridin-2-yl]-(2-trifluoromethoxy-benzyl)-amine]
< 1000	CCOc1ccccc1CNc1ccc(Cc2c[nH]c3ncc(C#N)cc23)cn1 [P-0323, 3-[6-(2-Ethoxy-benzylamino)-pyridin-3-ylmethyl]-1H-pyrrolo[2,3-b]pyridine-5-carbonitrile]
< 1000	Fc1cnc2[nH]cc(Cc3ccc(NCc4ccccc4C(F)(F)F)nc3)c2c1 [P-0325, [5-(5-Fluoro-1H-pyrrolo[2,3-b]pyridin-3-ylmethyl)-pyridin-2-yl]-(2-trifluoromethyl-benzyl)-amine]
< 1000	COc1cnc2[nH]cc(Cc3ccc(NCc4ccccc4C(F)(F)F)nc3)c2c1 [P-0326, [5-(5-Methoxy-1H-pyrrolo[2,3-b]pyridin-3-ylmethyl)-pyridin-2-yl]-(2-trifluoromethyl-benzyl)-amine]
< 1000	Fc1cnc2[nH]cc(Cc3ccc(NCc4ccccc4Cl)nc3)c2c1 [P-0327, (2-Chloro-benzyl)-[5-(5-fluoro-1H-pyrrolo[2,3-b]pyridin-3-ylmethyl)-pyridin-2-yl]-amine]
< 1000	COc1cnc2[nH]cc(Cc3ccc(NCc4ccccc4Cl)nc3)c2c1 [P-0328, (2-Chloro-benzyl)-[5-(5-methoxy-1H-pyrrolo[2,3-b]pyridin-3-ylmethyl)-pyridin-2-yl]-amine]
< 1000	Fc1ccc(F)c(CNc2ccc(Cc3c[nH]c4ncc(F)cc34)cn2)c1 [P-0329, (2,5-Difluoro-benzyl)-[5-(5-fluoro-1H-pyrrolo[2,3-b]pyridin-3-ylmethyl)-pyridin-2-yl]-amine]
< 1000	COc1cnc2[nH]cc(Cc3ccc(NCc4cc(F)ccc4F)nc3)c2c1 [P-0330, (2,5-Difluoro-benzyl)-[5-(5-methoxy-1H-pyrrolo[2,3-b]pyridin-3-ylmethyl)-pyridin-2-yl]-amine]
< 1000	COc1ccc(CNc2ccc(Cc3c[nH]c4ncc(F)cc34)cn2)cn1 [P-0331, [5-(5-Fluoro-1H-pyrrolo[2,3-b]pyridin-3-ylmethyl)-pyridin-2-yl]-(6-methoxy-pyridin-3-ylmethyl)-amine]
< 1000	COc1cnc2[nH]cc(Cc3ccc(NCc4ccc(OC)nc4)nc3)c2c1 [P-0332, (6-Methoxy-pyridin-3-ylmethyl)-[5-(5-methoxy-1H-pyrrolo[2,3-b]pyridin-3-ylmethyl)-pyridin-2-yl]-amine]
< 1000	COc1cnc2[nH]cc(Cc3ccc(NCc4c(F)cccc4F)nc3)c2c1 [P-0334, (2,6-Difluoro-benzyl)-[5-(5-methoxy-1H-pyrrolo[2,3-b]pyridin-3-ylmethyl)-pyridin-2-yl]-amine]
< 1000	COc1ccccc1CNc1ccc(Cc2c[nH]c3ncccc23)cn1 [P-0336, (2-Methoxy-benzyl)-[5-(1H-pyrrolo[2,3-b]pyridin-3-ylmethyl)-pyridin-2-yl]-amine]
< 1000	COc1ccccc1CNc1ccc(Cc2c[nH]c3ncc(C#N)cc23)cn1 [P-0337, 3-[6-(2-Methoxy-benzylamino)-pyridin-3-ylmethyl]-1H-pyrrolo[2,3-b]pyridine-5-carbonitrile]
< 1000	FC(F)Oc1ccccc1CNc1ccc(Cc2c[nH]c3ncc(Cl)cc23)cn1 [P-0338, [5-(5-Chloro-1H-pyrrolo[2,3-b]pyridin-3-ylmethyl)-pyridin-2-yl]-(2-difluoromethoxy-benzyl)-amine]
< 1000	N#Cc1cnc2[nH]cc(Cc3ccc(NCc4ccccc4OC(F)F)nc3)c2c1 [P-0339, 3-[6-(2-Difluoromethoxy-benzylamino)-pyridin-3-ylmethyl]-1H-pyrrolo[2,3-b]pyridine-5-carbonitrile]
< 1000	Fc1cccc(F)c1CNc1ccc(Cc2c[nH]c3ncccc23)cn1 [P-0340, (2,6-Difluoro-benzyl)-[5-(1H-pyrrolo[2,3-b]pyridin-3-ylmethyl)-pyridin-2-yl]-amine]
